In one experiment the target is AKT. Description: Kinase IC50, 33P radioisotope assay (Reaction Biology). It counts as biochemical. Particulars: recombinant kinase, 10 μM ATP. Here is the method: The panel, which included the three members of the TAM family, was selected based on the selectivity profile frequently found for other AXL inhibitors.[9] Kinase inhibition studies were performed by Reaction Biology Corporation, USA, by measuring ^33P incorporation on the corresponding kinase substrate relative to DMSO.
To understand how these structural changes had affected the kinase selectivity of the new compounds, 12a–d were screened against the 12-member panel of kinases used for previous hits. As before, kinase inhibition screenings were performed using radioisotope based methods by Reaction Biology Corporation.
(§1) 6.2. Dose response cell viability assay
(§2) with 95 µl of fresh medium.
(§3) a separate 96-well intermediate plate.
(§4) containing cells. […] After 5 d, PrestoBlue™ cell
(§5) 6.3. Kinase screening assay

The subject of experiment [1] is AXL-overexpressing mouse breast cancer cells (AXL+). Description: Dose response cell viability assay (PrestoBlue, day 5). It counts as cell-based. Particulars: PrestoBlue at day 5.
The subject of the next experiment is BT474 cells (AXL–). The description is as above. It counts as cell-based. Particulars: Homo sapiens, BT-474, 120 h, PrestoBlue at day 5.
The subject of a further experiment is MOLM-13 cells. The description is as above. It counts as cell-based. As to conditions: Homo sapiens, MOLM-13, 120 h; PrestoBlue at day 5. Here is the method: as §1, §2, §3, §4, §5
Another experiment relates to MV4-11 cells. The experiment is described as above. As to conditions: Homo sapiens, MV4-11, 120 h; PrestoBlue at day 5. It counts as cell-based. Here is the method:
as §1, §2, §3, §4, §5

The next experiment addresses T1, AXL (Homo sapiens, UniProt P30530).
T1 construct: purchased Reaction Biology Corporation
T1 sequence (P30530 26-894): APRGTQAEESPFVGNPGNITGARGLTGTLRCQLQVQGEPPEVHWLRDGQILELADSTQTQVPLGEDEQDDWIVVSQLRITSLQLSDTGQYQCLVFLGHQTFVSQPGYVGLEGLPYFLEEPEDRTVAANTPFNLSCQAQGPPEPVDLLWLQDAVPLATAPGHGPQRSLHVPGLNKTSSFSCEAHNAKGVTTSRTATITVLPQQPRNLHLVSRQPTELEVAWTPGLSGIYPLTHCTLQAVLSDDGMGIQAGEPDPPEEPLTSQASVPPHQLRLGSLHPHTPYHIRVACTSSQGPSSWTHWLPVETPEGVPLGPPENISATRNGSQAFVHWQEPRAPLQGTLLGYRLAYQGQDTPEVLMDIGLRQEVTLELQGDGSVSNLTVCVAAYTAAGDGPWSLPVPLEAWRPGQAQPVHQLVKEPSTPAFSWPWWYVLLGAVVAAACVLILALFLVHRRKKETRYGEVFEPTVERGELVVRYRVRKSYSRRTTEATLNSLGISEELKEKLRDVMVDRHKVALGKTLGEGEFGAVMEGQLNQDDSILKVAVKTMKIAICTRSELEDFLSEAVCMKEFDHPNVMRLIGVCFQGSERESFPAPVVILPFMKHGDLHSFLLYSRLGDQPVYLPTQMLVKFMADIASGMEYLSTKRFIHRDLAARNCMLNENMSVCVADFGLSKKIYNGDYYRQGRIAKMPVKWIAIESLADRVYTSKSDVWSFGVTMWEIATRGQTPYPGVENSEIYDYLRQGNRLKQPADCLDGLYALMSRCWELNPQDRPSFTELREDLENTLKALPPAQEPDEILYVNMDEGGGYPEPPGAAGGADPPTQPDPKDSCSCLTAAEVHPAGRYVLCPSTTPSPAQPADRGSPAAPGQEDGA
As to conditions: cited from earlier work.

For orientation: IC50 means the point on the concentration scale where inhibition reaches its midpoint. Turning to `Nc1nc(Nc2ccc3c(c2)CC[C@@H](N2CCCC2)CC3)nn1-c1cc2c(nn1)-c1ccccc1CCC2` [BGB324, reference compound], the IC50 on AKT was greater than 10 µM.

What is called EC50 is the concentration giving half of the maximal effect. Low values mean higher potency in that assay, high ones lower potency in that assay. Consider `CNc1ncc2c(-c3ccc(OC)cc3)nn(CC3CCCC3)c2n1` [Compound 7a], for which the EC50 in experiment [1] (Mus musculus, 120 h) amounted to 14.1 µM; with BT474 cells (AXL–), 24 µM.

For `CNc1ncc2c(-c3ccc(OC)c(OC)c3)nn(CC3CCCC3)c2n1` [Compound 7b], the EC50 worked out at 14.1 µM in experiment [1] (Mus musculus, 120 h) and 26 µM in the experiment with BT474 cells (AXL–).

On to `CNc1ncc2c(-c3cccc(C(N)=O)c3)nn(CC3CCCC3)c2n1` [Compound 7e], for which the EC50 is 16.3 µM in experiment [1] (Mus musculus, 120 h) and 24.7 µM in the experiment with BT474 cells (AXL–).

Consider `CNc1ncc2c(-c3ccc(N4CCNCC4)nc3)nn(CC3CCCC3)c2n1` [Compound 7f], for which the IC50 at AKT was greater than 10 µM.

As to `CNc1ncc2c(-c3ccc(N4CCNCC4)nc3)nn(CC3OCCO3)c2n1` [Compound 7g], the IC50 at AKT was greater than 10 µM. Also, the EC50 turned out to be 10.3 µM in experiment [1] and 20.5 µM in the experiment on BT474 cells (AXL–).

For `CNc1ncc2c(-c3ccc(OC)cc3)nn(CC3OCCO3)c2n1` [Compound 7h], the IC50 on AKT is greater than 10 µM. The EC50 stood at 5.02 µM in experiment [1] and 13.1 µM in the experiment with BT474 cells (AXL–).

For `CNc1ncc2c(-c3ccc(F)cc3)nn(CC3OCCO3)c2n1` [Compound 7i], the EC50 in experiment [1] (Mus musculus, 120 h) is 65.8 µM; with BT474 cells (AXL–), 60 µM.

As for `CNc1ncc2c(-c3ccc(N4CCNCC4)nc3)nn(Cc3cn(Cc4ccccc4)nn3)c2n1` [Compound 10a], the IC50 at AKT was greater than 10 µM. Besides, the EC50 came to 1.47 µM in experiment [1] (Mus musculus, 120 h) and 3.62 µM in the experiment on BT474 cells (AXL–).

With `CNc1ncc2c(-c3ccc(N4CCNCC4)nc3)nn(Cc3cn(C4CCCC4O)nn3)c2n1` (centres unmarked) [Compound 10b], the EC50 worked out at 34.1 µM in experiment [1] (Mus musculus, 120 h) and 18.4 µM in the experiment on BT474 cells (AXL–).

For `CNc1ncc2c(-c3ccc(N4CCNCC4)nc3)nn(Cc3cn(-c4ccsc4C(=O)OC)nn3)c2n1` [Compound 10d], the IC50 on AKT is greater than 10 µM. For the same compound, the EC50 in experiment [1] (Mus musculus, 120 h) turned out to be 1.83 µM; with BT474 cells (AXL–), 6.49 µM.

For the compound `CNc1ncc2c(-c3ccc(N4CCNCC4)nc3)nn(Cc3cn(-c4ccc(OC)cc4)nn3)c2n1` [Compound 10f], the EC50 in experiment [1] (Mus musculus, 120 h) was 3.7 µM; with BT474 cells (AXL–), 16.8 µM.

For the compound `CNc1ncc2c(-c3ccc(N4CCNCC4)cc3)nn(Cc3cn(Cc4ccccc4)nn3)c2n1` [Compound 12a], the 50% inhibitory concentration (IC50) on AKT is greater than 10 µM. Further, the EC50 was 39.7 µM in experiment [1] (Mus musculus, 120 h) and 32.3 µM with BT474 cells (AXL–).

For `CNc1ncc2c(-c3ccc(N4CCN(C)CC4)nc3)nn(Cc3cn(Cc4ccccc4)nn3)c2n1` [Compound 12b], the IC50 on AKT was greater than 10 µM. In addition, the EC50 was determined as 6.91 µM in experiment [1] (Mus musculus, 120 h) and 25.7 µM in the experiment with BT474 cells (AXL–).

Take `CCN1CCN(c2ccc(-c3nn(Cc4cn(Cc5ccccc5)nn4)c4nc(NC)ncc34)cn2)CC1` [Compound 12c]: the EC50 in experiment [1] (Mus musculus, 120 h) is greater than 100 µM; in the experiment on BT474 cells (AXL–), greater than 100 µM.

As for `CNc1ncc2c(-c3ccc(N4CCN(C(=O)C(C)(C)C)CC4)nc3)nn(Cc3cn(Cc4ccccc4)nn3)c2n1` [Compound 12d], the IC50 at AKT is greater than 10 µM. The EC50 in experiment [1] (Mus musculus, 120 h) was 9.16 µM; in the experiment on BT474 cells (AXL–), 12.4 µM.

In the case of `CNc1ccc(-c2nn(Cc3cn(Cc4ccccc4)nn3)c3nc(NC)ncc23)cn1` [Compound 12f], the EC50 in experiment [1] (Mus musculus, 120 h) is greater than 100 µM; in the experiment with BT474 cells (AXL–) it was greater than 100 µM. Moreover, in experiment [1], the “EC50 (AXL+ cells)” value was “completely inactive”.

Take `CNc1ncc2c(-c3ccc(N4CCN(C)CC4)nc3)nn(CC3CCCC3)c2n1` [Compound 13b]: on AKT, the IC50 was greater than 10 µM. Further, the EC50 in the experiment on MOLM-13 cells turned out to be 0.04 µM; in the experiment on MV4-11 cells it was 0.49 µM.

As for `CCN1CCN(c2ccc(-c3nn(CC4CCCC4)c4nc(NC)ncc34)cn2)CC1` [Compound 13c], the IC50 on AKT was greater than 10 µM. For the same compound, the values for the EC50 with MOLM-13 cells and in the experiment on MV4-11 cells were 0.94 µM and 3.49 µM, respectively.

Regarding `CNc1ncc2c(-c3ccc(N4CCN(C(=O)C(C)(C)C)CC4)nc3)nn(CC3CCCC3)c2n1` [Compound 13d], the IC50 on AKT is greater than 10 µM. For the same compound, the EC50 in the experiment with MOLM-13 cells amounted to 1.3 µM; with MV4-11 cells, 1.44 µM.

`COc1cc2c(Oc3ccc(NC(=O)C4(C(=O)Nc5ccc(F)cc5)CC4)cc3F)ccnc2cc1OCCCN1CCOCC1` [foretinib]: the “reported to inhibit AXL at” value on AXL is given as 11 nM.

(Values after article PMC5851644, “Development of Potent Inhibitors of Receptor Tyrosine Kinases by Ligand-Based Drug Design and Target-Biased Phenotypic Screening” (Journal of Medicinal Chemistry, 2018).)
